Data on 13 molecules can be found in US9403792B2, “Methods of using pyruvate kinase activators” (AGIOS PHARMACEUTICALS, INC, priority 2011, dated 2016).

Assay type in all cases: biochemical
One test concerns the target PKR wt (Homo sapiens, UniProt P30613). Description: PKR WT Single Point Percent Activation Assay. The conditions noted are these: compound at 1 μM. The procedure:
PKR WT Single Point Percent Activation Assay
(§1) A compound described herein was diluted with DMSO and tested at 1 μM concentration. The enzyme was diluted in 1× Buffer: (100 mM KCl, 50 mM Tris 7.5, 5 mM MgCl2, 1 mM DTT, 0.03% BSA). 2 μL of compound solution was first added into wells, and then 180 μL of enzyme solution was added. Assays were assembled except for ADP, and plates were stored for 60 minutes at RT. 20 μL ADP was added to start the assay and assay output was evaluated using OD340 at SpectraMax. The assay was run at room temperature.
Final Concentration: PKR wt (100 ng/well), Tris pH 7.5 (50 mM), KCl (100 mM), MgCl2 (5 mM), ADP (0.48 mM), PEP (0.15 mM), NADH (180 μM), LDH (0.5 units, Sigma 59023), DTT (1 mM) and BSA (0.03%).

The target of test [1] is T1, PKR R510Q (Homo sapiens, UniProt P30613, R510Q). In words: PKR R510Q Single Point Percent Activation Assay. The settings on record: compound at 1 μM; for activation at 1 µM: read-out: % Act. R510Q. Here is the method: PKR R510Q Single Point Percent Activation Assay
T1 sequence (P30613 whole entry R510Q): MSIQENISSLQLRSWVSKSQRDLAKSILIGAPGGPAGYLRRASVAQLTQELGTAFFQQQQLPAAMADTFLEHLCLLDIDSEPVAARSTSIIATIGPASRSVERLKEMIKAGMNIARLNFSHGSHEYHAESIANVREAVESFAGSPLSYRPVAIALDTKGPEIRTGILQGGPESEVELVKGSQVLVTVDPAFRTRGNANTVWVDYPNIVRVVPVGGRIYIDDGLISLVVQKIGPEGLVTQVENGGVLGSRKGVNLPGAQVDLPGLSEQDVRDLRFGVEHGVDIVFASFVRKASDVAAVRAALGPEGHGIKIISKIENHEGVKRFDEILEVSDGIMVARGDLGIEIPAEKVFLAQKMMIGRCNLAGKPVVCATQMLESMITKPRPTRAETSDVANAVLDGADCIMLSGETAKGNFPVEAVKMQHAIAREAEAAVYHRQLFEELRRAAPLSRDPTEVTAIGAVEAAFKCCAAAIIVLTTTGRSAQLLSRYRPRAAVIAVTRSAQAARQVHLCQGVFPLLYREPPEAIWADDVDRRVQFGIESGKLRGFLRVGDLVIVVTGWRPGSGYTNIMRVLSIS
as §1
Final Concentration: PKR R510Q (40 ng/well), Tris pH 7.5 (50 mM), KCl (100 mM), MgCl2 (5 mM), ADP (0.2 mM), PEP (0.11 mM), NADH (180 μM), LDH (0.5 units, Sigma 59023), DTT (1 mM) and BSA (0.03%).

Test [2] addresses T2, PKR R532W (Homo sapiens, UniProt P30613, R532W). In words: PKR R532W Single Point Percent Activation Assay. The settings on record: compound at 1 μM; for activation at 1 µM: read-out: % Act. R532W. The procedure: PKR R532W Single Point Percent Activation Assay
as §1
Final Concentration: PKR R532W (100 ng/well), Tris pH 7.5 (50 mM), KCl (100 mM), MgCl2 (5 mM), ADP (0.36 mM), PEP (0.1 mM), NADH (180 μM), LDH (0.5 units, Sigma 59023), DTT (1 mM) and BSA (0.03%).

Test [3] addresses T3, PKR T384W (Homo sapiens, UniProt P30613, T384W). Description: PKR T384W Single Point Percent Activation Assay. The settings on record: compound at 1 μM; for activation at 1 µM: read-out: % Act. T384W. The procedure:
PKR T384W Single Point Percent Activation Assay
A compound described herein was diluted with DMSO and tested at 1 μM concentration. The enzyme was diluted in 1× Buffer: (100 mM KCl, 50 mM Tris 7.5, 5 mM MgCl2, 1 mM DTT, 0.03% BSA). 2 μL of compound solution was first added into wells, and then 180 μL enzyme solution was added. Assays were assembled except for ADP, and plates were stored for 60 minutes at RT. 20 μL ADP was added to start the assay and assay output was evaluated using OD340 at SpectraMax. The assay was run at room temperature.
Final Concentration: PKR T384W soluble (300 ng/well), Tris pH 7.5 (50 mM), KCl (100 mM), MgCl2 (5 mM), ADP (0.08 mM), PEP (0.23 mM), NADH (180 μM), LDH (0.5 units, Sigma 59023), DTT (1 mM) and BSA (0.03%).

In the next test the target is wild type PKR (Homo sapiens, UniProt P30613). Description: PKR Mutant Assay (AC50), wild type PKR. The conditions noted are these: read-out: PKR WT AC50. The procedure: (§2) • PKR or PKR mutant enzyme solution was diluted in assay buffer. 2 μL of test compound was added into wells first, and then 180 μL reaction mix was added. • Reactions mixture with test compound was assembled except for ADP, and plates were stored for 60 minutes at room temperature. • 20 uL ADP was added to start reaction at room temperature and reaction progress was measured as changes in absorbance at 340 nm wavelength at room temperature. Test Compound Preparation: • Test compound stock was made at 100× concentration in 100% DMSO (10 mM) • 1 to 3 dilutions were made for 11 points (i.e. 50 μl of first concentration added to 100 μl 100% DMSO to yield 3.33 mM, 50 μl of this added to 100 μl DMSO to yield 1.11 mM, and so forth) • 1 to 100 dilution into assay (2 μl in 200 μl) yielded starting concentration of 100 μM, decreasing 3 fold for 11 points. Assay Buffer: 100 mM KCl, 50 mM Tris 7.5, 5 mM MgCl2, 1 mM DTT, 0.03% BSA Reaction Mixture: PKR mutant enzyme: 80-400 ng/well; ADP: 0.22-1.65 mM; PEP: 0.1-0.5 mM; NADH: 180 uM; LDH: 0.5 units (Sigma#59023); DTT: 1 mM; BSA: 0.03%.
Chain of wild type PKR (P30613 whole entry): as the sequence (P30613 whole entry R510Q) above, with Q510R counted along it

Test [4] concerns the target T1, PKR R510Q. In words: PKR Mutant Assay (AC50), PKR R510Q. Here is the method:
as §2

Test [5] addresses T2, PKR R532W. Description: PKR Mutant Assay (AC50), PKR R532W. The procedure:
as §2

Test [6] addresses T3, PKR T384W. Description: PKR Mutant Assay (AC50), PKR T384W. Here is the method: as §2
For the next test, the target named is PKR G332S (Homo sapiens, UniProt P30613, G332S). In words: PKR Mutant Assay (AC50), PKR G332S. The procedure: as §2
Chain of PKR G332S (P30613 whole entry G332S): as the sequence (P30613 whole entry R510Q) above, with G332S, Q510R counted along it
The target of another test is PKR G364D (Homo sapiens, UniProt P30613, G364D). In words: PKR Mutant Assay (AC50), PKR G364D. The procedure:
as §2

The next test addresses PKR R479H (Homo sapiens, UniProt P30613, R479H). In words: PKR Mutant Assay (AC50), PKR R479H. The procedure:
as §2

Each structure is given as a SMILES string.

Chain of PKR G364D (P30613 whole entry G364D): as the sequence (P30613 whole entry R510Q) above, with G364D, Q510R counted along it
T2 sequence (P30613 whole entry R532W): as the sequence (P30613 whole entry R510Q) above, with Q510R, R532W counted along it
Chain of PKR wt (P30613 whole entry): as the sequence (P30613 whole entry R510Q) above, with Q510R counted along it
T3 sequence (P30613 whole entry T384W): as the sequence (P30613 whole entry R510Q) above, with T384W, Q510R counted along it
Chain of PKR R479H (P30613 whole entry R479H): as the sequence (P30613 whole entry R510Q) above, with R479H, Q510R counted along it

Regarding `O=S(=O)(c1ccc2c(c1)OCCO2)N1CCN(S(=O)(=O)c2c(F)cccc2F)CC1`, the activation at 1 µM on PKR wt fell in the range of 101 to 500%; at PKR R510Q [1], 101 to 500%; on PKR R532W [2], 1 to 100%; on PKR T384W [3] it was 1 to 100%.
For `O=S(=O)(c1ccc2c(c1)OCCO2)N1CCCN(S(=O)(=O)c2c(F)cccc2F)CC1`, the activation at 1 µM on PKR wt, at PKR R510Q [1], on PKR R532W [2] and on PKR T384W [3] was 101 to 500% throughout.
As for `COc1cc(F)c(S(=O)(=O)N2CCN(S(=O)(=O)c3cccc(N)c3)CC2)c(F)c1`, the activation at 1 µM on PKR wt, at PKR R510Q [1], on PKR R532W [2] and on PKR T384W [3] was 101 to 500% in each case.
Consider `Nc1cccc(S(=O)(=O)N2CCN(S(=O)(=O)c3ccc4c(c3)OCCO4)CC2)c1`, for which the activation at 1 µM on PKR wt is 1 to 100%; at PKR R510Q [1] it was 1 to 100%; on PKR R532W [2], 101 to 500%; at PKR T384W [3], 1 to 100%.
With `Nc1cccc(S(=O)(=O)N2CCN(S(=O)(=O)c3c(F)cccc3F)CC2)c1`, the activation at 1 µM on PKR wt, on PKR R510Q [1], on PKR R532W [2] and at PKR T384W [3] was 101 to 500% in each case.
`COc1cc(F)c(S(=O)(=O)N2CCCN(S(=O)(=O)c3cccc(N)c3)CC2)c(F)c1`: the activation at 1 µM on PKR wt, on PKR R510Q [1], on PKR R532W [2] and at PKR T384W [3] was 101 to 500% in each case.
In the case of `COc1cccc(Cn2ncc3c4sc([S+](C)[O-])cc4n(C)c3c2=O)c1` (centres unmarked), the activation at 1 µM on PKR wt fell in the range of 1 to 100%; on PKR R510Q [1], 101 to 500%; on PKR R532W [2], 101 to 500%; on PKR T384W [3] it was 1 to 100%. Also, the AC50 at wild type PKR, at PKR R510Q [4], at PKR R532W [5], on PKR T384W [6], on PKR G332S and at PKR G364D was less than 100 nM throughout. For the same molecule, the AC50 on PKR R479H was less than 100 nM.
On to `CSc1cc2c(s1)c1cnn(Cc3cccc(O)c3)c(=O)c1n2C`, for which the activation at 1 µM was 101 to 500% at PKR wt, greater than 500% at PKR R510Q [1], 101 to 500% on PKR R532W [2] and 101 to 500% on PKR T384W [3]. For the same molecule, the AC50 at wild type PKR, at PKR R510Q [4], on PKR R532W [5], on PKR T384W [6], on PKR G332S and on PKR G364D was less than 100 nM throughout. Also, the AC50 on PKR R479H was less than 100 nM.
As to `CCCCCn1ncc2c3sc(C)cc3n(C)c2c1=O`, the activation at 1 µM on PKR wt, on PKR R510Q [1], at PKR R532W [2] and on PKR T384W [3] was 101 to 500% throughout.
Turning to `Cn1c2cc([S+](C)[O-])sc2c2cnn(Cc3ccccc3F)c(=O)c21` (centres unmarked), the activation at 1 µM at PKR wt, on PKR R510Q [1], on PKR R532W [2] and at PKR T384W [3] was 101 to 500% each time. Further, the AC50 was 101 to 500 nM on wild type PKR; 101 to 500 nM on PKR R510Q [4]; greater than 500 nM at PKR R532W [5]; greater than 500 nM on PKR T384W [6]; greater than 500 nM at PKR G332S; 101 to 500 nM on PKR G364D. This molecule also gave an AC50 on PKR R479H of 101 to 500 nM.
In the case of `Cn1c2cc([S+](C)[O-])sc2c2cnn(Cc3cccc(O)c3)c(=O)c21` (centres unmarked), the activation at 1 µM at PKR wt, on PKR R510Q [1], at PKR R532W [2] and at PKR T384W [3] was 101 to 500% throughout. Moreover, the AC50 on wild type PKR, at PKR R510Q [4], at PKR R532W [5], on PKR T384W [6], at PKR G332S and on PKR G364D was less than 100 nM throughout. For the same molecule, the AC50 on PKR R479H is less than 100 nM.
Take `Nc1cccc(S(=O)(=O)N2CCCN(S(=O)(=O)c3ccc4c(c3)OCCO4)CC2)c1` [drawing 17]: the “% Act. WT” value at PKR wt is recorded as “B (a % activation at 1 μM of from 101 to 500)”. The “% Act. R510Q” value on PKR R510Q [1] is on record as “B (a % activation at 1 μM of from 101 to 500)”. In addition, at PKR R532W [2], the “% Act. R532W” value is reported as “A (a % activation at 1 μM of from 1 to 100)”. The “% Act. T384W” value at PKR T384W [3] is listed as “B (a % activation at 1 μM of from 101 to 500)”.
In the case of `Nc1cccc(S(=O)(=O)N2CCCN(S(=O)(=O)c3ccc4c(c3)OCCO4)CC2)c1` [drawing 23], the activation at 1 µM on PKR wt, at PKR R510Q [1] and on PKR T384W [3] was 101 to 500% each time. At PKR R532W [2], the “% Act. R532W” value is “B (a % activation at 1 μM of from 101 to 500)”.
